Test results: patent publication US20230085307A1, “PYRIDAZINONE COMPOUND AND HERBICIDE” (NISSAN CHEMICAL CORPORATION, priority 2019, published 2023)

How the values were obtained:
[1] = tested on: Chinese sprangletop; test: Test Example 3: herbicidal effect by foliage application, Wagner pot (Table 18, symbol D); type: in vivo, chinese sprangletop (Leptochloa chinensis)
How it was run: (§1)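 Plants were sown in alluvial soil held under 0.1–0.5 cm standing water and grown 14 days in a greenhouse at 25–30 °C. An emulsifiable formulation, water-diluted to the set dose, was then sprayed onto the foliage, and effects were scored three weeks later using previously defined criteria.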

[2] = tested on: wild oat; test: Test Example 4: herbicidal effect by soil treatment (Table 19, symbol I); type: in vivo, wild oat (Avena fatua); conditions: amount of applied herbicide 320 g/ha
How it was run: (§2)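 Herbicidal effect was rated 3 weeks after treatment, using the scoring criteria of an earlier test. The compound, formulated as an emulsion and diluted in water to a set herbicide amount, had been sprayed uniformly on soil over freshly sown seeds. Growth took place in a greenhouse at 25° C. to 30° C.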

[3] = tested on: persian speedwell; test: Test Example 4: herbicidal effect by soil treatment (Table 19, symbol R); type: in vivo, Persian speedwell (Veronica persica); conditions: amount of applied herbicide 320 g/ha
How it was run: as §2

[4] = tested on: green foxtail; test: Test Example 5: herbicidal effect by foliage application, plastic box (Table 20, symbol G); type: in vivo, green foxtail (Setaria viridis); conditions: foliage application
How it was run: (§3)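 Foliar spray test: emulsion formulation diluted in water to a set application rate, sprayed onto 14-day-old plants raised in diluvial soil at 25° C to 30° C under glass. Both herbicidal effect and crop effect rated visually three weeks later.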

[5] = tested on: Italian ryegrass; test: Test Example 4: herbicidal effect by soil treatment (Table 19, symbol K); type: in vivo, Italian ryegrass (Lolium multiflorum); conditions: amount of applied herbicide 320 g/ha
How it was run: as §2

[6] = tested on: windgrass; test: Test Example 4: herbicidal effect by soil treatment (Table 19, symbol L); type: in vivo, windgrass (Apera spica-venti); conditions: amount of applied herbicide 320 g/ha
How it was run: as §2

[7] = tested on: redroot pigweed; test: Test Example 4: herbicidal effect by soil treatment (Table 19, symbol N); type: in vivo, redroot pigweed (Amaranthus retroflexus); conditions: amount of applied herbicide 320 g/ha
How it was run: as §2

[8] = tested on: barnyard grass; test: Test Example 5: herbicidal effect by foliage application, plastic box (Table 20, symbol H); type: in vivo, barnyard grass (Echinochloa crus-galli); conditions: foliage application
How it was run: as §3

[9] = tested on: wild oat; test: Test Example 5: herbicidal effect by foliage application, plastic box (Table 20, symbol I); type: in vivo, wild oat (Avena fatua); conditions: foliage application
How it was run: as §3

[10] = tested on: barnyard grass; test: Test Example 4: herbicidal effect by soil treatment (Table 19, symbol H); type: in vivo, barnyard grass (Echinochloa crus-galli); conditions: amount of applied herbicide 320 g/ha
How it was run: as §2

[11] = tested on: green foxtail; test: Test Example 4: herbicidal effect by soil treatment (Table 19, symbol G); type: in vivo, green foxtail (Setaria viridis); conditions: amount of applied herbicide 320 g/ha
How it was run: as §2

[12] = tested on: persian speedwell; test: Test Example 5: herbicidal effect by foliage application, plastic box (Table 20, symbol R); type: in vivo, Persian speedwell (Veronica persica); conditions: foliage application
How it was run: as §3

[13] = tested on: Italian ryegrass; test: Test Example 5: herbicidal effect by foliage application, plastic box (Table 20, symbol K); type: in vivo, Italian ryegrass (Lolium multiflorum); conditions: foliage application
How it was run: as §3

[14] = tested on: southern crabgrass; test: Test Example 5: herbicidal effect by foliage application, plastic box (Table 20, symbol F); type: in vivo, southern crabgrass (Digitaria ciliaris); conditions: foliage application
How it was run: as §3

[15] = tested on: barnyard grass; test: Test Example 3: herbicidal effect by foliage application, Wagner pot (Table 18, symbol H); type: in vivo, barnyard grass (Echinochloa crus-galli)
How it was run: as §1

[16] = tested on: rice flat sedge; test: Test Example 3: herbicidal effect by foliage application, Wagner pot (Table 18, symbol E); type: in vivo, rice flat sedge (Cyperus iria)
How it was run: as §1

[17] = tested on: southern crabgrass; test: Test Example 4: herbicidal effect by soil treatment (Table 19, symbol F); type: in vivo, southern crabgrass (Digitaria ciliaris); conditions: amount of applied herbicide 320 g/ha
How it was run: as §2

[18] = tested on: windgrass; test: Test Example 5: herbicidal effect by foliage application, plastic box (Table 20, symbol L); type: in vivo, windgrass (Apera spica-venti); conditions: foliage application
How it was run: as §3

[19] = tested on: false cleavers; test: Test Example 4: herbicidal effect by soil treatment (Table 19, symbol Q); type: in vivo, false cleavers (Galium spurium); conditions: amount of applied herbicide 320 g/ha
How it was run: as §2

[20] = tested on: chickweed; test: Test Example 5: herbicidal effect by foliage application, plastic box (Table 20, symbol P); type: in vivo, common chickweed (Stellaria media); conditions: foliage application
How it was run: as §3

[21] = tested on: velvetleaf; test: Test Example 4: herbicidal effect by soil treatment (Table 19, symbol M); type: in vivo, velvetleaf (Abutilon theophrasti); conditions: amount of applied herbicide 320 g/ha
How it was run: as §2

[22] = tested on: blackgrass; test: Test Example 4: herbicidal effect by soil treatment (Table 19, symbol J); type: in vivo, blackgrass (Alopecurus myosuroides); conditions: amount of applied herbicide 320 g/ha
How it was run: as §2

[23] = tested on: velvetleaf; test: Test Example 5: herbicidal effect by foliage application, plastic box (Table 20, symbol M); type: in vivo, velvetleaf (Abutilon theophrasti); conditions: foliage application
How it was run: as §3

[24] = tested on: lambsquarters; test: Test Example 4: herbicidal effect by soil treatment (Table 19, symbol O); type: in vivo, lambsquarters (Chenopodium album); conditions: amount of applied herbicide 320 g/ha
How it was run: as §2

[25] = tested on: false cleavers; test: Test Example 5: herbicidal effect by foliage application, plastic box (Table 20, symbol Q); type: in vivo, false cleavers (Galium spurium); conditions: foliage application
How it was run: as §3

[26] = tested on: blackgrass; test: Test Example 5: herbicidal effect by foliage application, plastic box (Table 20, symbol J); type: in vivo, blackgrass (Alopecurus myosuroides); conditions: foliage application
How it was run: as §3

[27] = tested on: chickweed; test: Test Example 4: herbicidal effect by soil treatment (Table 19, symbol P); type: in vivo, common chickweed (Stellaria media); conditions: amount of applied herbicide 320 g/ha
How it was run: as §2

[28] = tested on: lambsquarters; test: Test Example 5: herbicidal effect by foliage application, plastic box (Table 20, symbol O); type: in vivo, lambsquarters (Chenopodium album); conditions: foliage application
How it was run: as §3

[29] = tested on: redroot pigweed; test: Test Example 5: herbicidal effect by foliage application, plastic box (Table 20, symbol N); type: in vivo, redroot pigweed (Amaranthus retroflexus); conditions: foliage application
How it was run: as §3

[30] = amount of applied herbicide 320 g/ha
[31] = 320 g/ha, evaluated three weeks after application
[32] = AAH 320 g/ha, three weeks after application

CCOc1cc(F)ccc1-c1sc2ccc(Cl)cc2c1-c1c(O)c(C)nn(C)c1=O [2-115]
herbicidal effect on D: Chinese sprangletop [1, 30]: 1 (Herbicidal rate of 5% or more and less than 20%)
I: wild oat, herbicidal effect rating [2]: 0 (Herbicidal rate of 5% or less (almost no effect))
R: persian speedwell, herbicidal effect rating [3]: 4 (Herbicidal rate of 70% or more and less than 90%)
herbicidal effect on G: green foxtail [4, 31]: 3 (Herbicidal rate of 40% or more and less than 70%)
K: Italian ryegrass, herbicidal effect rating [5]: 0 (Herbicidal rate of 5% or less (almost no effect))
L: windgrass, herbicidal effect rating [6]: 0 (Herbicidal rate of 5% or less (almost no effect))
N: redroot pigweed, herbicidal effect rating [7]: 5 (Herbicidal rate of 90% or more (almost completely withered))
herbicidal effect on H: barnyard grass [8, 31]: 5 (Herbicidal rate of 90% or more (almost completely withered))
herbicidal effect on I: wild oat [9, 31]: 1 (Herbicidal rate of 5% or more and less than 20%)
H: barnyard grass, herbicidal effect rating [10]: 3 (Herbicidal rate of 40% or more and less than 70%)
G: green foxtail, herbicidal effect rating [11]: 2 (Herbicidal rate of 20% or more and less than 40%)
herbicidal effect on R: persian speedwell [12, 31]: 5 (Herbicidal rate of 90% or more (almost completely withered))
herbicidal effect on K: Italian ryegrass [13, 31]: 0 (Herbicidal rate of 5% or less (almost no effect))
herbicidal effect on F: southern crabgrass [14, 31]: 4 (Herbicidal rate of 70% or more and less than 90%)
herbicidal effect on H: barnyard grass [15, 30]: 5 (Herbicidal rate of 90% or more (almost completely withered))
herbicidal effect on E: rice flat sedge [16, 30]: 3 (Herbicidal rate of 40% or more and less than 70%)
F: southern crabgrass, herbicidal effect rating [17]: 3 (Herbicidal rate of 40% or more and less than 70%)
herbicidal effect on L: windgrass [18, 31]: 3 (Herbicidal rate of 40% or more and less than 70%)
Q: false cleavers, herbicidal effect rating [19]: 4 (Herbicidal rate of 70% or more and less than 90%)
herbicidal effect on P: chickweed [20, 31]: 5 (Herbicidal rate of 90% or more (almost completely withered))
M: velvetleaf, herbicidal effect rating [21]: 1 (Herbicidal rate of 5% or more and less than 20%)
J: blackgrass, herbicidal effect rating [22]: 4 (Herbicidal rate of 70% or more and less than 90%)
herbicidal effect on M: velvetleaf [23, 31]: 5 (Herbicidal rate of 90% or more (almost completely withered))
O: lambsquarters, herbicidal effect rating [24]: 3 (Herbicidal rate of 40% or more and less than 70%)
herbicidal effect on Q: false cleavers [25, 31]: 5 (Herbicidal rate of 90% or more (almost completely withered))
herbicidal effect on J: blackgrass [26, 31]: 3 (Herbicidal rate of 40% or more and less than 70%)
P: chickweed, herbicidal effect rating [27]: 3 (Herbicidal rate of 40% or more and less than 70%)
herbicidal effect on O: lambsquarters [28, 31]: 3 (Herbicidal rate of 40% or more and less than 70%)
herbicidal effect on N: redroot pigweed [29, 31]: 5 (Herbicidal rate of 90% or more (almost completely withered))

CCCC(=O)Oc1c(C)nn(C)c(=O)c1-c1c(-c2ccc3c(c2)OC(F)(F)O3)sc2ccccc12 [1-100]
herbicidal effect on D (Chinese sprangletop), rating 0-5 ([1]; 320 g/ha): 0 (Herbicidal rate of 5% or less (almost no effect))
herbicidal effect rating, I: wild oat [2]: 0 (Herbicidal rate of 5% or less (almost no effect))
herbicidal effect rating, R: persian speedwell [3]: 5 (Herbicidal rate of 90% or more (almost completely withered))
G: green foxtail, herbicidal effect [4, 32]: 0 (Herbicidal rate of 5% or less (almost no effect))
herbicidal effect rating, K: Italian ryegrass [5]: 3 (Herbicidal rate of 40% or more and less than 70%)
herbicidal effect rating, L: windgrass [6]: 0 (Herbicidal rate of 5% or less (almost no effect))
herbicidal effect rating, N: redroot pigweed [7]: 0 (Herbicidal rate of 5% or less (almost no effect))
H: barnyard grass, herbicidal effect [8, 32]: 0 (Herbicidal rate of 5% or less (almost no effect))
I: wild oat, herbicidal effect [9, 32]: 1 (Herbicidal rate of 5% or more and less than 20%)
herbicidal effect rating, H: barnyard grass [10]: 0 (Herbicidal rate of 5% or less (almost no effect))
herbicidal effect rating, G: green foxtail [11]: 0 (Herbicidal rate of 5% or less (almost no effect))
R: persian speedwell, herbicidal effect [12, 32]: 5 (Herbicidal rate of 90% or more (almost completely withered))
K: Italian ryegrass, herbicidal effect [13, 32]: 1 (Herbicidal rate of 5% or more and less than 20%)
F: southern crabgrass, herbicidal effect [14, 32]: 0 (Herbicidal rate of 5% or less (almost no effect))
herbicidal effect on H (barnyard grass), rating 0-5 ([15]; 320 g/ha): 0 (Herbicidal rate of 5% or less (almost no effect))
herbicidal effect on E (rice flat sedge), rating 0-5 ([16]; 320 g/ha): 4 (Herbicidal rate of 70% or more and less than 90%)
herbicidal effect rating, F: southern crabgrass [17]: 0 (Herbicidal rate of 5% or less (almost no effect))
L: windgrass, herbicidal effect [18, 32]: 0 (Herbicidal rate of 5% or less (almost no effect))
herbicidal effect rating, Q: false cleavers [19]: 2 (Herbicidal rate of 20% or more and less than 40%)
P: chickweed, herbicidal effect [20, 32]: 5 (Herbicidal rate of 90% or more (almost completely withered))
herbicidal effect rating, M: velvetleaf [21]: 0 (Herbicidal rate of 5% or less (almost no effect))
herbicidal effect rating, J: blackgrass [22]: 0 (Herbicidal rate of 5% or less (almost no effect))
M: velvetleaf, herbicidal effect [23, 32]: 3 (Herbicidal rate of 40% or more and less than 70%)
herbicidal effect rating, O: lambsquarters [24]: 0 (Herbicidal rate of 5% or less (almost no effect))
Q: false cleavers, herbicidal effect [25, 32]: 3 (Herbicidal rate of 40% or more and less than 70%)
J: blackgrass, herbicidal effect [26, 32]: 0 (Herbicidal rate of 5% or less (almost no effect))
herbicidal effect rating, P: chickweed [27]: 2 (Herbicidal rate of 20% or more and less than 40%)
O: lambsquarters, herbicidal effect [28, 32]: 0 (Herbicidal rate of 5% or less (almost no effect))
N: redroot pigweed, herbicidal effect [29, 32]: 0 (Herbicidal rate of 5% or less (almost no effect))
